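Cells were grown in 96-well plates and exposed to each compound for 48 hours at five concentrations; endpoints were interpolated linearly between bracketing concentrations, or set to the highest concentration if not reached. Here, GI50 denotes the concentration required for 50% inhibition of growth.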 The source made the active and inactive calls. No stated cut-off is given here; in the data, active = GI50 up to about 1.1 µM and inactive = higher.
Key:
Assay in all cases: inhibition of tumour cell growth, NCI panel, 48 h
[1] = system: DU-145
[2] = system: NCI-H23
[3] = system: Hs-578T
[4] = system: PC-3
[5] = system: SN12C
[6] = system: HOP-62
[7] = system: UO-31
[8] = system: OVCAR-8
[9] = system: TK-10
[10] = system: UACC-257
[11] = system: NCI-H522
[12] = system: 786-0
[13] = system: SK-MEL-28
[14] = system: SNB-75
[15] = system: SF-539
[16] = system: SK-OV-3
[17] = system: IGROV-1
[18] = system: CCRF-CEM
[19] = system: HL-60

Row | Structure (SMILES) | GI50 [1] | GI50 [2] | GI50 [3] | GI50 [4] | GI50 [5] | GI50 [6] | GI50 [7] | GI50 [8] | GI50 [9] | GI50 [10] | GI50 [11] | GI50 [12] | GI50 [13] | GI50 [14] | GI50 [15] | GI50 [16] | GI50 [17] | GI50 [18] | GI50 [19]
1 | COc1ccc(NCc2c(O)ccc3ccccc23)cc1 | 76 µM (inactive) | 36.3 µM (inactive) | 60.5 µM (inactive) | 17.1 µM (inactive) | 34.4 µM (inactive) | 68.2 µM (inactive) | 11.3 µM (inactive) | 15.8 µM (inactive) | 17.9 µM (inactive) | 18.4 µM (inactive) | 14.8 µM (inactive) | 16.4 µM (inactive) | 27.4 µM (inactive) | > 100 µM (inactive) | 13.2 µM (inactive) | > 100 µM (inactive) | 20.4 µM (inactive) | – | –
2 | COc1ccc(OC)c(C(Cc2ccnc3ccccc23)Cc2ccnc3ccccc23)c1 | > 10 µM (inactive) | > 10 µM (inactive) | 8.63 µM (inactive) | 5.28 µM (inactive) | > 10 µM (inactive) | > 10 µM (inactive) | 6.68 µM (inactive) | > 10 µM (inactive) | > 10 µM (inactive) | > 10 µM (inactive) | 6.32 µM (inactive) | > 10 µM (inactive) | > 10 µM (inactive) | 6.11 µM (inactive) | > 10 µM (inactive) | > 10 µM (inactive) | > 10 µM (inactive) | 8.57 µM (inactive) | –
3 | CCOC(=O)c1cc2c3c(c(C(C)=O)c(O)c2[nH]1)N(C(C)=O)CC3 | 82.6 µM (inactive) | 46.9 µM (inactive) | 51.9 µM (inactive) | 48.3 µM (inactive) | > 100 µM (inactive) | > 100 µM (inactive) | 31.2 µM (inactive) | 38.1 µM (inactive) | 40.6 µM (inactive) | > 100 µM (inactive) | – | > 100 µM (inactive) | 34.4 µM (inactive) | > 100 µM (inactive) | 48.9 µM (inactive) | > 100 µM (inactive) | 31.8 µM (inactive) | 46 µM (inactive) | 76.2 µM (inactive)
4 | O=C1CSC(c2c(O)ccc3ccccc23)N1n1c(S)nnc(/C=C/c2c(O)ccc3ccccc23)c1=O (stereo not drawn) | 2.01 µM (inactive) | 1.98 µM (inactive) | 44.4 µM (inactive) | 3.18 µM (inactive) | 0.752 µM (active) | 4.84 µM (inactive) | 0.92 µM (active) | 0.467 µM (active) | 1.18 µM (inactive) | 1.43 µM (inactive) | 1.14 µM (inactive) | 0.662 µM (active) | – | 1.5 µM (inactive) | – | – | 2.28 µM (inactive) | 0.244 µM (active) | 0.232 µM (active)
5 | CC(=O)OCCCCn1cc(Cn2ccc(=O)n(Cc3cn(CCCCOC(C)=O)nn3)c2=O)nn1 | > 100 µM (inactive) | > 100 µM (inactive) | > 100 µM (inactive) | > 100 µM (inactive) | > 100 µM (inactive) | > 100 µM (inactive) | > 100 µM (inactive) | > 100 µM (inactive) | > 100 µM (inactive) | > 100 µM (inactive) | – | > 100 µM (inactive) | > 100 µM (inactive) | > 100 µM (inactive) | > 100 µM (inactive) | > 100 µM (inactive) | > 100 µM (inactive) | > 100 µM (inactive) | –
6 | Cc1ccc(NC(=O)CC(=O)N2N=C(c3ccccc3)C(/N=N/c3ccc(S(=O)(=O)CCOS(=O)(=O)O)cc3)C2=O)cc1 (stereo not drawn) | > 100 µM (inactive) | 23.6 µM (inactive) | 29.2 µM (inactive) | > 100 µM (inactive) | > 100 µM (inactive) | 77.6 µM (inactive) | > 100 µM (inactive) | 64.3 µM (inactive) | > 100 µM (inactive) | > 100 µM (inactive) | 58.6 µM (inactive) | 60.5 µM (inactive) | > 100 µM (inactive) | > 100 µM (inactive) | > 100 µM (inactive) | – | 41.6 µM (inactive) | > 100 µM (inactive) | > 100 µM (inactive)
7 | CCOC(=O)C1CCC(=O)N1C(=O)c1ccccc1Cl (stereo not drawn) | > 100 µM (inactive) | > 100 µM (inactive) | > 100 µM (inactive) | > 100 µM (inactive) | > 100 µM (inactive) | > 100 µM (inactive) | > 100 µM (inactive) | > 100 µM (inactive) | > 100 µM (inactive) | > 100 µM (inactive) | > 100 µM (inactive) | > 100 µM (inactive) | > 100 µM (inactive) | > 100 µM (inactive) | > 100 µM (inactive) | – | > 100 µM (inactive) | > 100 µM (inactive) | > 100 µM (inactive)
8 | CSc1nncc2[nH]cnc12 | > 100 µM (inactive) | > 100 µM (inactive) | > 100 µM (inactive) | > 100 µM (inactive) | > 100 µM (inactive) | > 100 µM (inactive) | > 100 µM (inactive) | > 100 µM (inactive) | > 100 µM (inactive) | > 100 µM (inactive) | – | > 100 µM (inactive) | > 100 µM (inactive) | > 100 µM (inactive) | > 100 µM (inactive) | – | > 100 µM (inactive) | > 100 µM (inactive) | > 100 µM (inactive)
9 | CCCCCCCC/C=C\CCCCCCCC(=O)OC[C@]1(CO)CCC(=O)O1 | > 100 µM (inactive) | > 100 µM (inactive) | > 100 µM (inactive) | > 100 µM (inactive) | > 100 µM (inactive) | > 100 µM (inactive) | > 100 µM (inactive) | > 100 µM (inactive) | > 100 µM (inactive) | > 100 µM (inactive) | > 100 µM (inactive) | > 100 µM (inactive) | > 100 µM (inactive) | > 100 µM (inactive) | – | > 100 µM (inactive) | > 100 µM (inactive) | > 100 µM (inactive) | –
10 | Cc1oc2c(c1C)S(=O)(=O)C(C#N)=C(c1ccccc1)N2 | > 100 µM (inactive) | > 100 µM (inactive) | > 100 µM (inactive) | > 100 µM (inactive) | > 100 µM (inactive) | > 100 µM (inactive) | > 100 µM (inactive) | > 100 µM (inactive) | > 100 µM (inactive) | > 100 µM (inactive) | > 100 µM (inactive) | > 100 µM (inactive) | > 100 µM (inactive) | > 100 µM (inactive) | > 100 µM (inactive) | > 100 µM (inactive) | > 100 µM (inactive) | – | –
11 | O=S(=O)(c1ccccc1)n1c(C(O)c2ccccc2)cc2ccccc21 (stereo not drawn) | 33.9 µM (inactive) | 18.9 µM (inactive) | 10.9 µM (inactive) | 15.7 µM (inactive) | – | 17.9 µM (inactive) | 11.7 µM (inactive) | 16.9 µM (inactive) | 17.3 µM (inactive) | 16.2 µM (inactive) | – | 14.1 µM (inactive) | 19.6 µM (inactive) | 14.7 µM (inactive) | 16.7 µM (inactive) | 15 µM (inactive) | 15.5 µM (inactive) | 9.46 µM (inactive) | 11.4 µM (inactive)
12 | CC(=O)C(O)N1C(=O)C=CC1=O (stereo not drawn) | 12.8 µM (inactive) | 15.9 µM (inactive) | 7.38 µM (inactive) | 6.11 µM (inactive) | 2.83 µM (inactive) | 19.5 µM (inactive) | 5.86 µM (inactive) | 6.22 µM (inactive) | 2.53 µM (inactive) | 6 µM (inactive) | 1 µM (active) | 2.33 µM (inactive) | 10.4 µM (inactive) | 6.24 µM (inactive) | 5.41 µM (inactive) | 25.2 µM (inactive) | 21.1 µM (inactive) | – | 1.74 µM (inactive)
13 | Nc1ncnc2c1N=C(c1ccccc1)CC(c1ccccc1)N2 (stereo not drawn) | > 100 µM (inactive) | > 100 µM (inactive) | 39.4 µM (inactive) | > 100 µM (inactive) | > 100 µM (inactive) | 97.5 µM (inactive) | > 100 µM (inactive) | > 100 µM (inactive) | > 100 µM (inactive) | > 100 µM (inactive) | > 100 µM (inactive) | > 100 µM (inactive) | > 100 µM (inactive) | 23.6 µM (inactive) | > 100 µM (inactive) | > 100 µM (inactive) | – | > 100 µM (inactive) | –
14 | Cc1cc(S(=O)(=O)NC2=NCCCN2)c(S)cc1Cl | 72.4 µM (inactive) | – | 24.5 µM (inactive) | 58.5 µM (inactive) | 49.4 µM (inactive) | 54.3 µM (inactive) | 58.9 µM (inactive) | 24.3 µM (inactive) | 26.9 µM (inactive) | 37.5 µM (inactive) | 22 µM (inactive) | 20.8 µM (inactive) | 56.4 µM (inactive) | 42.3 µM (inactive) | 57.8 µM (inactive) | 36.6 µM (inactive) | 27.5 µM (inactive) | – | 22.1 µM (inactive)
15 | CC(C)CCC(=O)c1ccoc1 [PERILLAKETONE] | > 100 µM (inactive) | > 100 µM (inactive) | > 100 µM (inactive) | > 100 µM (inactive) | > 100 µM (inactive) | > 100 µM (inactive) | > 100 µM (inactive) | > 100 µM (inactive) | > 100 µM (inactive) | > 100 µM (inactive) | – | > 100 µM (inactive) | > 100 µM (inactive) | > 100 µM (inactive) | > 100 µM (inactive) | > 100 µM (inactive) | > 100 µM (inactive) | > 100 µM (inactive) | > 100 µM (inactive)
16 | NCCS(=O)(=O)O [TAURINE] | > 100 µM (inactive) | > 100 µM (inactive) | > 100 µM (inactive) | > 100 µM (inactive) | > 100 µM (inactive) | > 100 µM (inactive) | > 100 µM (inactive) | > 100 µM (inactive) | > 100 µM (inactive) | > 100 µM (inactive) | > 100 µM (inactive) | > 100 µM (inactive) | > 100 µM (inactive) | > 100 µM (inactive) | > 100 µM (inactive) | – | > 100 µM (inactive) | > 100 µM (inactive) | > 100 µM (inactive)
